Experimental data taken from patent publication US5482948A, “Pyridyl derivatives and pharmaceutical compositions comprising these compounds” (Dr. Karl Thomae GmbH, priority 1991, dated 1996).
pEC50, pIC50: −log10 of the molar value.

Key:
[1] = target: T1, Thromboxane (Homo sapiens, UniProt P21731); assay: Thromboxane-antagonistic activity (displacement of 3H-labelled ligand on human platelets); assay type: binding; details: human platelet suspension, 60 minutes at ambient temperature
T1 construct: endogenous in cells; host or cells: human platelets (platelet-rich plasma passed through Sepharose 2B)
T1 sequence (P21731 1-343): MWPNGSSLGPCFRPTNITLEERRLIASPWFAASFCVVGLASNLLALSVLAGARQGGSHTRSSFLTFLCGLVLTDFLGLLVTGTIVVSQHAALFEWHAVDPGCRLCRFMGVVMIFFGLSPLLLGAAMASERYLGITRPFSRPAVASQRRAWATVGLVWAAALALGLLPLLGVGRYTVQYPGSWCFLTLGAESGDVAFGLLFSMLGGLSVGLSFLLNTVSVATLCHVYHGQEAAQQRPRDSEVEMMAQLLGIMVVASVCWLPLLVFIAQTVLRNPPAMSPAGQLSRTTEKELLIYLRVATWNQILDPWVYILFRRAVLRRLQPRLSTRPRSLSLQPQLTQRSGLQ
Description: Thromboxane-antagonistic Activity
Venous human blood is anti-coagulated with 13 mM Na3 citrate and centrifuged for 10 minutes at 170×g. The supernatant platelet-rich plasma is passed through a Sepharose 2B column in order to remove the plasma proteins. Aliquots of the platelet suspension obtained are incubated with the test substance, the ligand (^3 H-labelled) and a marker (^14 C-labelled) for 60 minutes at ambient temperature and then centrifuged for 20 seconds at 10,000×g. The supernatant is removed and the pellet is dissolved in NaOH. The ^3 H activity in the supernatant corresponds to the free ligand, ^14 C gives the concentration of the marker. ^3 H in the pellet corresponds to the bound ligand whilst ^14 C is used to correct for the ligand in the extracellular space. After the process has been repeated, the displacement curve is determined from the binding values for different concentrations of the test substance and the IC50 is determined.

[2] = target: T2, thromboxane synthetase (Homo sapiens, UniProt P24557); assay: Inhibitory effect on thromboxane synthetase (TXB2 formation in human platelet suspension); assay type: cell-based; details: 10 minutes at ambient temperature, then 14C-labelled arachidonic acid 10 minutes, read-out: Inhibition of thromboxane synthetase IC50
T2 construct: endogenous in cells; host or cells: human platelets (platelet-rich plasma passed through Sepharose 2B)
T2 sequence (P24557 1-533): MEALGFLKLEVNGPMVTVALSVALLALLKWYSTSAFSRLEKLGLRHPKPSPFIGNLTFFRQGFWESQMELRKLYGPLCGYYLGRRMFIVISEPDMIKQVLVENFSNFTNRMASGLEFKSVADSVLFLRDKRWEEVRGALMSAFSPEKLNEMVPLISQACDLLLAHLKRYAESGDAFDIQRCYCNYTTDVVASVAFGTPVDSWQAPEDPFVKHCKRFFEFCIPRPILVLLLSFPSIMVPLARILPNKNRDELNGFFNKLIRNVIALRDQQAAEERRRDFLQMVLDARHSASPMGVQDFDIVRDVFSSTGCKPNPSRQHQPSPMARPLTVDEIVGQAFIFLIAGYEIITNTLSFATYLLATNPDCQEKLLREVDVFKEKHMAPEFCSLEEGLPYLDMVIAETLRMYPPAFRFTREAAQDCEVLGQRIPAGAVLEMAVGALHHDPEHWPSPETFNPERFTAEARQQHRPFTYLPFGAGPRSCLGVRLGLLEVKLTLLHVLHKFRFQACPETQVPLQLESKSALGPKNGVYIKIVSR
Description: Determining the Inhibitory Effect on Thromboxane Synthetase
Venous human blood is anti-coagulated with 13 mM Na3 citrate and centrifuged for 10 minutes at 170×g. The supernatant platelet-rich plasma is passed through a Sepharose 2B column in order to remove the plasma proteins. Aliquots of the platelet suspension obtained are incubated with the test substance or with a solvent as control for 10 minutes at ambient temperature and after the addition of ^14 C-labelled arachidonic acid incubation is continued for a further 10 minutes. After this has been stopped with 50 μl of citric acid, extraction is carried out 3 times with 500 μl of ethyl acetate and the combined extracts are distilled off with nitrogen. The residue is taken up in ethyl acetate, placed on TLC film and separated with chloro-form:methanol:glacial acetic acid:water (90:8:1:0.8, v/v/v/v). The dried TLC films are placed on X-ray film for 3 days, the autoradiograms were developed and the active zones were marked on the film using the autoradiograms. After cutting out, the activity is measured in a scintillation counter and the inhibition of the formation of TXB2 is calculated. The IC50 is determined by linear interpolation.

[3] = tested on: thrombocyte aggregation; assay: Antithrombotic activity: collagen-induced aggregation in platelet-rich plasma (Born and Cross); assay type: cell-based; details: Homo sapiens, 10 min; platelet-rich plasma from healthy volunteers; incubated 10 minutes at 37° C.; 50% change in optical density; read-out: Inhibition of collagen-induced aggregation EC50
Description: The thrombocyte aggregation is measured using the method of Born and Cross (J. Physiol. 170, 397 (1964)) in platelet-rich plasma taken from healthy volunteers. To inhibit coagulation, the blood is mixed with 3.14% strength sodium citrate in a ratio by volume of 1:10.
Collagen-induced Aggregation
The pattern of decrease in the optical density of the platelet suspension is photometrically measured and recorded after the addition of the aggregation-triggering substance. The rate of aggregation is concluded from the angle of inclination of the density curve. The point on the curve where there is greatest light transmittance is used to calculate the "optical density".
The quantity of collagen used is as little as possible but sufficient to produce an irreversible reaction curve. Standard commercial collagen produced by Hormonchemie of Munich is used. Before the addition of the collagen the plasma is incubated for 10 minutes with the substance at 37° C.
From the measurements obtained an EC50 is determined by plotting a graph, and indicates a 50% change in the "optical density" in terms of the inhibition of aggregation.

| Compound | pIC50 [1] | pIC50 [2] | pEC50 [3] |
| --- | --- | --- | --- |
| CC(C)CNC(=NS(N)(=O)=O)Nc1cccc(/C(=C\CCCC(=O)O)c2cccnc2)c1 [W, 5E-6-(3-(2-amidosulphonyl-3-(2-methylpropyl)guanidino)phenyl)-6-(3-pyridyl)hex-5-enoic acid] | 6.22 | 5.57 | 4.92 |
| CC(C)CCNC(Nc1cccc(/C(=C\CCCC(=O)O)c2cccnc2)c1)=C(C#N)C#N [L, 5E-6-(3-(2,2-dicyano-1-(3-methylbutylamino)ethyleneamino)phenyl)-6-(3-pyridyl)hex-5-enoic acid] | 7.82 | 7.51 | 5.92 |
| CC(C)(C)NC(=NS(=O)(=O)c1ccccc1)Nc1cccc(/C(=C\CCCC(=O)O)c2cccnc2)c1 [Example V, 5E-6-(3-(3-tert.butyl-2-phenylsulphonyl-guanidino)phenyl)-6-(3-pyridyl)hex-5-enoic acid] | 7.26 | 8.40 | 5.52 |
